# Values of other authors as cited in US20100322961A1, “Intranasal Drug Delivery System” (priority 2007, published 2010).
# Details: pure substance; background statement
compound,measurement,value
COc1cc(CNC(=O)CCCC/C=C/C(C)C)ccc1O [capsaicin],pungency (Scoville heat units),"15,000,000-16,000,000 Scoville units"
